Values of other authors in patent US6656473B2, “Tryptophan source from plants and uses thereof” (priority 2000, dated 2003).

Molecular target: plasma albumin (Homo sapiens, UniProt P02768)
Details: after absorption

plasma albumin, sequence (P02768 25-609): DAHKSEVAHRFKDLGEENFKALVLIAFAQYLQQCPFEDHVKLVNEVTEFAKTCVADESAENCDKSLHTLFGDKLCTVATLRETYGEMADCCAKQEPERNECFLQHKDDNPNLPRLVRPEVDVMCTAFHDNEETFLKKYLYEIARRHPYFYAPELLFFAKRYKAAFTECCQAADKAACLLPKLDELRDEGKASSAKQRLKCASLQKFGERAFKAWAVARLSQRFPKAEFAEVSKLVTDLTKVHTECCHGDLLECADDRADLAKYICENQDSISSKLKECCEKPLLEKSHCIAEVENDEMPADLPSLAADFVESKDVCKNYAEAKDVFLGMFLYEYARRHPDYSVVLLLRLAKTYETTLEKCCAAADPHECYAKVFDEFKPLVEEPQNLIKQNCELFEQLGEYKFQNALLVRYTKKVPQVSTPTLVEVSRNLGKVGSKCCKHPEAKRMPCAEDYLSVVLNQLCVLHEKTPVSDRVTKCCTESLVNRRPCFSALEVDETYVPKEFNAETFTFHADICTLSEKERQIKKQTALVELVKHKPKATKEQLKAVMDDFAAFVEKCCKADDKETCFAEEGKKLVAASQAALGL

SMILES: N[C@@H](Cc1c[nH]c2ccccc12)C(=O)O [tryptophan]
- Share circulating as free tryptophan: 20%
- Share circulating in the blood bound to plasma albumin: approximately 80%
